Laboratory results: article PMC11181328 (Journal of Medicinal Chemistry, 2024)

What was measured:
[1] = target: T1, KOR (Mus musculus, UniProt P33534); assay: [35S]-GTPγS functional assay, KOR; format: biochemical; conditions: for EC50: mKOR-CHO membranes; for Emax: percent of U50,488 full agonist control
T1 construct: expressed in transfected cells; membrane homogenate

[2] = test system: male Swiss Webster mice; assay: Warm-water tail immersion assay, receptor selectivity study; format: in vivo, mouse; conditions: for antagonism of antinociceptive effects by nor-BNI (KOR antagonist) pretreatment: 10 mg/kg nor-BNI s.c. 24 h prior to 0.1 mg/kg test compound s.c. (23 also 0.05 mg/kg); for antagonism of antinociceptive effects by β-FNA (MOR antagonist) pretreatment: 10 mg/kg β-FNA s.c. 24 h prior to 0.1 mg/kg test compound s.c.; for antagonism of antinociceptive effects by NTI (DOR antagonist) pretreatment: 15 mg/kg NTI s.c. 30 min prior to 0.1 mg/kg test compound s.c. (23 also 0.05 mg/kg); for antagonism of antinociceptive effects by NTI and nor-BNI pretreatment together: nor-BNI 10 mg/kg + NTI 15 mg/kg s.c. prior to test compound
[3] = target: MOR (Mus musculus, UniProt P42866); assay: [35S]-GTPγS functional assay, MOR; format: biochemical; set-up: expressed in transfected cells; membrane homogenate; conditions: for EC50: mMOR-CHO membranes; for [35S]-GTPγS functional activity MOR Emax (%): percent of DAMGO full agonist control; for Emax: read-out: [35S]-GTPγS functional activity MOR Emax (%)
[4] = target: hERG (Homo sapiens, UniProt Q12809); assay: Automated patch-clamp hERG inhibition assay in CHO-hERG cells
[5] = target: hERG (Kv11.1) (Homo sapiens, UniProt Q12809); assay: as above
Sequence of hERG (Kv11.1) (Q12809 whole entry): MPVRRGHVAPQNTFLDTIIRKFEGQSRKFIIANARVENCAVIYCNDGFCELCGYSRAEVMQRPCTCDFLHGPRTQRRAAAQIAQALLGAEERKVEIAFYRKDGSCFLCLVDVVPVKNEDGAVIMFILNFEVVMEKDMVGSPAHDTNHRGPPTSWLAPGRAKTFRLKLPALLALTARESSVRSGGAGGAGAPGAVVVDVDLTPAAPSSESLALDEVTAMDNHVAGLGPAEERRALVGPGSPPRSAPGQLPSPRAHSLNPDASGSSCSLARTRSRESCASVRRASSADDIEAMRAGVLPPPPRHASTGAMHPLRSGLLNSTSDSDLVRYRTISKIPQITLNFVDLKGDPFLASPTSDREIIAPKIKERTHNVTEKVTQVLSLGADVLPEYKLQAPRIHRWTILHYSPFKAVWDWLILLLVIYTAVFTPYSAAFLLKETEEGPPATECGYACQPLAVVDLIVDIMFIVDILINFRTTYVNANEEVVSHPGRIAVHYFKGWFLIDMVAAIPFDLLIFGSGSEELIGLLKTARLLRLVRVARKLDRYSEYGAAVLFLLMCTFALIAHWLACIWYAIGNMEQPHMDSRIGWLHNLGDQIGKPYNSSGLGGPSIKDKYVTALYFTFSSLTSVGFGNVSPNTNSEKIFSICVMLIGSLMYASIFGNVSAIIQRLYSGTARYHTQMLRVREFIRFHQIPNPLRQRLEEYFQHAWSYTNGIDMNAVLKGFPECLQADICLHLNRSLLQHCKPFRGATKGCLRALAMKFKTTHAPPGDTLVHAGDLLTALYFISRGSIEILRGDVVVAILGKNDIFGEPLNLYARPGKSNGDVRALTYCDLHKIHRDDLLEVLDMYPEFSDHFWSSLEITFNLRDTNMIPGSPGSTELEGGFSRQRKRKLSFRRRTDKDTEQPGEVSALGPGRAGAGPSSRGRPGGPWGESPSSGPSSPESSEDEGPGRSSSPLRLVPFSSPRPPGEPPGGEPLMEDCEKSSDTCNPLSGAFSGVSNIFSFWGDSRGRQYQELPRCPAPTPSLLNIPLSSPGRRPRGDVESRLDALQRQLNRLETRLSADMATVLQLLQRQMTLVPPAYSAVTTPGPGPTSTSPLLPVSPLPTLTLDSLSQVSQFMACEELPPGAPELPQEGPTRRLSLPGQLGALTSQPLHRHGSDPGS

Sequence of MOR (P42866 whole entry, looked up): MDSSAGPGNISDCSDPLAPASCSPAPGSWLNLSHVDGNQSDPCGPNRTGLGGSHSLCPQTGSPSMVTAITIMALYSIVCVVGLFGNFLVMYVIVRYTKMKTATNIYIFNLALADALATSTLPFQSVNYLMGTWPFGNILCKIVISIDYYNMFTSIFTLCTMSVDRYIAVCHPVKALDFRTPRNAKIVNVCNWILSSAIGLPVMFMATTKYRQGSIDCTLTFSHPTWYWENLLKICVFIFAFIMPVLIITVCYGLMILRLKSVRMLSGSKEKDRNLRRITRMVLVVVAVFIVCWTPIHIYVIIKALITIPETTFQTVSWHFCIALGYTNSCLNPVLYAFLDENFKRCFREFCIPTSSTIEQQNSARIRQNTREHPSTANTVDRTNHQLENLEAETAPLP
T1 sequence (P33534 whole entry): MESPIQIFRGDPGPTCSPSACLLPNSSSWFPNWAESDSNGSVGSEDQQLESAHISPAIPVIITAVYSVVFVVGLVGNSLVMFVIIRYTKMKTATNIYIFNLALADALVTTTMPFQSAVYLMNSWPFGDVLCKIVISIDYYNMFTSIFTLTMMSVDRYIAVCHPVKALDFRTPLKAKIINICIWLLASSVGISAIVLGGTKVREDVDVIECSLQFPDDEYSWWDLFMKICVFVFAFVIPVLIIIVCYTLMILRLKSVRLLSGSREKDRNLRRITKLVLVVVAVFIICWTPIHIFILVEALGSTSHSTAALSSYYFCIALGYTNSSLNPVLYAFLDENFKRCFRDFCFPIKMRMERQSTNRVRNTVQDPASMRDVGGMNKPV
Sequence of hERG (Q12809 whole entry): as the sequence (Q12809 whole entry) above

Row | Structure (SMILES) | EC50 [1] [nM] | Emax [1] [%] | antagonism of antinociceptive effects by nor-BNI (KOR antagonist) pretreatment [2] | antagonism of antinociceptive effects by β-FNA (MOR antagonist) pretreatment [2] | antagonism of antinociceptive effects by NTI (DOR antagonist) pretreatment [2] | antagonism of antinociceptive effects by NTI and nor-BNI pretreatment together [2] | EC50 [3] [nM] | [35S]-GTPγS functional activity MOR Emax (%) [3] | Emax [3] [%] | IC50 [4] [nM] | IC50 [5] [nM]
1 | CN(C(=O)/C=C/c1ccco1)[C@@H]1CC[C@@]2(O)[C@H]3Cc4ccc(O)c5c4[C@@]2(CCN3CC2CC2)[C@H]1O5.Cl [Compound 23, 17-Cyclopropylmethyl-3,14β-dihydroxy-4,5α-epoxy-6β-[(2E)-3′-(furan-2″-yl)-N-methylprop-2-enamido]morphinan Hydrochloride] | 0.14 ± 0.02 | 106.5 ± 0.7 | slight, nonsignificant decrease | not antagonized by β-FNA | antagonized by NTI | enhanced antagonism | 5.31 ± 0.53 | low efficacy MOR partial agonism | 14.2 ± 1.77 | 1090 | 
2 | CN(C(=O)/C=C/c1ccco1)[C@H]1CC[C@@]2(O)[C@H]3Cc4ccc(O)c5c4[C@@]2(CCN3CC2CC2)[C@H]1O5.Cl [Compound 21, 17-Cyclopropylmethyl-3,14β-dihydroxy-4,5α-epoxy-6α-[(2E)-3′-(furan-2″-yl)-N-methylprop-2-enamido]morphinan Hydrochloride] | 0.04 | 107 ± 2.6 | antagonized | not antagonized by β-FNA | antagonized | seemed to compound the decrease | 0.58 ± 0.17 | low efficacy MOR partial agonism | 19.7 ± 0.7 |  | 2510
